The conditions of data set [1]: cited from earlier work.
Details of data set [2]: species or system Wistar derived albino rats. The settings on record: rat, in vivo. Here is the method:
Sixteen Wistar derived albino rats, eight male (242-333 gms) and eight female (295-345 gms) were acclimated for seven days prior to beginning this study. During this period the rats were fed Purina(R) Rodent Chow, watered ad lib and housed in self-flushing stainless-steel cages.
The rats were randomly assigned to two groups of eight each (4 males and 4 females) and placed in metabolism cages. […] Blood samples were taken at 1, 2, 3 and 4 hours after dosing for serum salicylate analysis. Urine was collected if produced at the same time periods for salicylate analysis also. In an effort to maximize urine output the rats were given additional water at 1, 2, 3 and 4 hours by gavage (3 ml).
Blood and urine were collected and analyzed according to the method of Natleson. [Natelson, S. Techniques of Clinical Chemistry, ed. 3. p. 649, Charles C. Thomas, Pub. (1971)]. The study was terminated after the 4 hour collection time.
All statistics were calculated via Statistical Analysis System (SAS Institute, Inc., Box 8000, Cary, NC, 27511) software. The ANOVA (repeated measures model) procedure was used to determine differences in salicylate concentrations between groups.
The average values (X) and standard deviation (SD) for each group and time are given. Figure 1 is a histogram presentation of the data in Table 2. The significance level (P) of the differences between the two groups at each sample time in salicylate concentration in serum are given next to each set of histograms. Figure 2 is the serum salicylate profile over time for both groups of rats, standard deviation bars are included. The initial uptake rate (gastrointestinal) is calculated from the linearized curve in the first hour after dosing. Urine salicylate data is not presented in detail but will be discussed below. The groups are not broken down into male and female because there is no significant difference in the serum salicylate related to the sex of the animal.

On the set-up of data set [3]: species or system men. The settings on record: in vivo. An excerpt: The following example describes clinical tests comparing the product of Example 1 (test material) with L-ascorbic acid and citric acid (placebo), measuring intra-cellular and serum ascorbate levels, urinary ascorbate output and urinary oxalate excretion at various times after ingestion of standard doses of the test, L-ascorbic acid and placebo.
Twelve men, ages 27 to 45, were studied.
All were instructed that they should be on a low Vitamin C diet for one week prior to the study (no citrus products and no large amounts of green leafy vegetables).
Following overnight fast, blood and 24-hour urine samples were taken. White blood cell and 24-hour urinary ascorbate and oxalate levels were determined and correlated with serum ascorbate levels.
The 12 men were divided into three groups, and were given the following supplements: • (a) Test Group: 4000 MG* per day of the product Ex. 1. • (b) Ascorbate Group: 3000 MG of L-ascorbic per day. • (c) Citric Acid Group: 3000 MG of citric acid per day. *4000 MG is equivalent in ascorbate (iodine test) to 3000MG L-ascorbic acid.
All 12 continued on a low Vitamin C diet. Blood samples were taken at 0, 4, 8 and 24 hours after morning ingestion of the designated supplements. Urinary 24-hour ascorbate and oxalate levels were determined.
After a wash-out period (varying from two days to several days, due to job situation of participants), the groups were switched to another supplement, as follows: • (a) Test group to citrate group. • (b) Citrate group to ascorbate group. • (c) Ascorbate group to test group.
Supplements were taken at the same level (4000 MG of Ex. 1 product, 3000 MG of L-ascorbic and 3000 MG of citric acid) by all three groups. Blood samples were again drawn at 0, 4, 8 and 24 hours from time of ingestion. A 24-hour urine was also collected by all 12 participants at the end of the period. Again, all specimens were analyzed for their respective concentration of ascorbate and oxalate levels.
The analytical procedures utilized are described in: Clinical Chemistry, Principles and Techniques, edited by Richard J. Henry, Donald D. Cannon and James W. Windelman, Harper and Row, 1974 p. 1393-1398.
Standard Method of Clinical Chemistry, J. S. Roe, edited by Seligson D. New York, Academic Press, 1961, Vo. 3, p. 35.
In the quantitation of 24-hour urine oxalate, an aliquot of urine is shaken with an adsorbent which selectively binds the oxalate. The extracted urine is discarded and the oxalate is eluted from the adsorbent with dilute alkali.
Oxalate is oxidized to hydrogen peroxide and carbon dioxide by oxalate oxidase. The hydrogen peroxide reacts with 3-methyl-2-benzothiozolinone hydrazone (MBTH) and 3 (dimethylamino) benzoic acid (DMAB) in the presence of peroxidase to yield an indamine dye with a maximum absorbance at 590 NM.

Data set [4] can be described thus: Plasma Piroxicam after gavage, combined administration with calcium threonate (Example 12). The data set is classed as in vivo, Wistar derived albino rats. The settings on record: 0.6 mg/kg; for Plasma Piroxicam Concentration: listed as U.S.P. piroxicam; for concentration at 4 h: 4 hours after dosing. Here is the method:
Ten Wistar derived albino rats, male (375-411 gms), were acclimated for seven days prior to beginning the study. During this period the rats were fed Purina(R) Rodent Chow, watered ad lib and housed in self-flushing stainless-steel cages.
The rats were randomly assigned to two groups of five each and placed in Nalgene(R) cages. Group A received U.S.P. Piroxicam at 0.6 mg/kg, and Group AM received U.S.P. Piroxicam at 0.6 mg/kg plus calcium threonate at 15 mg/kg by gavage. Plasma samples were taken at 4, 6, 8 and 10 hours after dosing for plasma Piroxicam analysis.
Selective HPLC was used to analyze Piroxicam and the data analyzed via SAS. The ANOVA repeated measures procedure was used to determine differences in plasma Piroxicam concentrations between groups.
The average values (X) for each group and time are given. Figure 3 is the plasma profile of the data in Table 4.

The nature of data set [5]: Plasma Piroxicam after gavage, 3-day calcium threonate pretreatment (Example 13). The settings on record: rat, po, 0.6 mg/kg, read-out: Piroxicam Plasma Concentration, average (X). Type of data set: in vivo, Wistar derived Albino rats. Here is the method: Ten Wistar derived Albino rats, male (420-456 gms), were acclimated for seven days prior to beginning the study. During this period the rats were fed Purina(R) Rodent Chow, watered ad lib and housed in self-flushing stainless-steel cages.
The rats were randomly assigned to two groups of five each. Group A rats were gavaged daily for 3 days with 1.0 ml distilled water prior to beginning the study. Group AM rats were gavaged daily with 15 mg/kg/ml of calcium threonate for 3 days also. Threonate dosages were corrected for increases in body weights daily in insure the 15 mg/kg dose was maintained.
On day 4 the Group A rats were gavaged with Piroxicam at 0.6 mg/kg and group AM rats with 0.6 mg/kg Piroxicam and 15 mg/kg threonate. Plasma samples were taken at 4, 6, 8 and 10 hrs. post-dosing for plasma Piroxicam analysis.
Selective HPLC was used to analyze Piroxicam. The data was analyzed statistically by the SAS procedure. The ANOVA repeated measures procedure was used to determine differences in plasma Piroxicam concentration between groups.
The average (X) values for each group at each time period are given.

Another data set relates to movement disorders. The data set can be described thus: Supplementation of dogs with chronic movement disorders; clinical evaluation and owner's report. The settings on record: given orally. Type of data set: in vivo. Here is the method:
One hundred-eighty dogs of varying breed and age were fed 3 x 30 mgs/kg of the product of Example 1. All of these dogs suffered movement disorders.
The effect was measured seven days after supplementation and then again after six weeks. Last evaluation was after more than six months.
A number of different ailments were treated, both acute and chronic. In acute illness where symptoms are rapidly changing, one finds it hard to distinguish between the effect of supplementation and other factors.
Animals with the following chronic ailments were chosen: joint-injuries with secondary permanent changes, arthrosis, spondylosis, hip dysplasia, older dico-prolapse with secondary permanent changes, muscle-atrophy as a result of funtio laesa and senile wear-changes in support and motion-systems.
One hundred dogs qualify under the above criteria. Age or breed was not taken into consideration in this report.

The text below walks through data of patent publication EP0417209B1, “COMPOSITIONS AND METHODS FOR ADMINISTERING […] ACTIVE COMPOUNDS” (priority 1988, dated 1990).

Values joined by “and” are separate entries in the source; they are usually repeats but may differ in a detail not shown here. Equal entries are not always repeated.

Experimental for 3T3 mouse fibroblasts: A control group was incubated with Ringer's as a control.
(5 ul of 14C-L ascorbic acid was added, 10.0 mCi/mmol, 0.05 mCi/ml).
The flasks were then washed with 4 ml HBSS(-) and then were trypsinized with 0.1 ml trypsin-EDTA for 5 minutes. The cells were resuspended in 4 ml ice cold HBSS(-) to stop the enzymatic reaction. The cells were centrifuged for 10 minutes at 1000 G. The cells were then washed and resuspended in 4 ml HBSS(-). The cells were again centrifuged (10 min, 1000G), resuspended in 1.0 ml distilled H2O and sonicated for 90 seconds.
0.5 ml of each sample was used for counting ^14C and 0.5 ml was used for protein analysis using the Bradford method.

In the case of `C=CCOc1ccc(CC(=O)O)cc1Cl` [Alclofenac], the pKa (in general, the pH at which an ionisable group is half protonated) in data set [1] was 4.6.
With `CC(=O)Oc1ccccc1C(=O)O` [Aspirin], in data set [2], the elimination rate was found to be 1.30 mg/h and the uptake rate was found to be 4.40 mg/h. Also, the Urine salicylate entry in data set [2] (60 min) is reported as “approximately 9.1 mg%”.
With `O=C(O)[C@H](O)[C@@H](O)CO` [Calcium-L-Threonate, calcium L-threonate], in the data set with 3T3 mouse fibroblasts (average of three flasks), the “uptake of 14C into the cells, average” value turned out to be 1.19 DPM/ug. For the same molecule, the “Uptake Ratio, average” value in the data set on 3T3 mouse fibroblasts (average of three flasks, relative to Ringer's control) came to 1.86. The “uptake of 14C into the cells” value in the data set with 3T3 mouse fibroblasts (single flask, 100 mg% calcium L-threonate 1 hour at 37°C, then 1.25 mg% ascorbic acid 20 minutes) is 0.835 DPM/ug and 1.341 DPM/ug and 1.384 DPM/ug. Further, the “Uptake Ratio” value in the data set on 3T3 mouse fibroblasts (single flask, relative to average Ringer's control) was 1.30 and 2.09 and 2.16.
With `CO[C@@]1(NC(=O)Cc2cccs2)C(=O)N2C(C(=O)O)=C(COC(N)=O)CS[C@@H]21` [Cefoxitin], the pKa in data set [1] is given as 2.2.
On to `O=C1O[C@H]([C@@H](O)CO)C(O)=C1O` [L-ascorbic, L-ascorbic acid], for which, in data set [3], the “7th Day Urine Ascorbate” value was found to be 459 MG/24 Hour, the “7th Day Urine Ascorbate % Change” value came out at 4583%, the “24 Hour Urine Ascorbate” value is given as 314.5 MG/24 Hour and the “24 Hour Urine Ascorbate % Change” value came to 2760.6%. For the same molecule, in data set [3], the “24th Hour Urine Oxalate” value was 63.8 MG/24 Hour and the “24th Hour Urine Oxalate % Change” value came out at 162%.
Regarding `Cc1ccc(Cl)c(Nc2ccccc2C(=O)O)c1Cl` [Meclofenamic Acid], in data set [1], the pKa is 4.0.
Turning to `CN1C(C(=O)Nc2ccccn2)=C(O)c2ccccc2S1(=O)=O` [Prioxicam], the “Plasma Piroxicam Concentration” value in data set [4] (8 hours after dosing, individual rat, 480 min) is 1.9 µg/mL and 1.8 µg/mL and 1.6 µg/mL; in data set [4] (10 hours after dosing, individual rat, 600 min) it was 1.4 µg/mL and 1.7 µg/mL and 2.0 µg/mL. Also, the concentration at 4 h in data set [4] (rat, plasma, po, group average, read-out: Plasma Piroxicam Concentration, average (X)) was determined as 1800 ng/mL; in data set [4] (rat, plasma, po, piroxicam 0.6 mg/kg (AM: plus threonate 15 mg/kg), individual rat, read-out: Plasma Piroxicam Concentration) it was 2200 ng/mL; in data set [5] (4 hrs post-dosing on day 4, group average) it was 1300 ng/mL. For the same molecule, the concentration at 6 h was 1700 ng/mL in data set [4] (rat, plasma, po, 6 hours after dosing, group average, read-out: Plasma Piroxicam Concentration, average (X)) and 1300 ng/mL in data set [5] (6 hrs post-dosing on day 4, group average). Moreover, the concentration at 8 h in data set [4] (rat, plasma, po, 8 hours after dosing, group average, read-out: Plasma Piroxicam Concentration, average (X)) came to 1800 ng/mL; in data set [4] (rat, plasma, po, 8 hours after dosing, individual rat, read-out: Plasma Piroxicam Concentration) it was 1700 ng/mL; in data set [5] (8 hrs post-dosing on day 4, group average) it was 1100 ng/mL. Further, the concentration at 10 h in data set [4] (rat, plasma, po, 10 hours after dosing, group average, read-out: Plasma Piroxicam Concentration, average (X)) amounted to 1800 ng/mL; in data set [4] (rat, plasma, po, 10 hours after dosing, individual rat, read-out: Plasma Piroxicam Concentration), 2000 ng/mL; in data set [5] (10 hrs post-dosing on day 4, group average), 900 ng/mL.
With `CC1=C(CC(=O)O)c2cc(F)ccc2/C1=C\c1ccc([S+](C)[O-])cc1` (stereo not shown) [Sulindac], the pKa in data set [1] was 4.7.
For the molecule `O=C1O[C@H]([C@@H](O)CO)C(O)=C1O` [calcium-ascorbate], the “symptomatic relief of chronic deforming changes in the joint and skeleton system” value in the data set on movement disorders was “Neither calcium-ascorbate alone nor L-ascorbic acid alone give such relief”.
